This assay deals with phosphorylation of Hsp27 (Ser78) in Thp-1 human acute monocytic leukemia cells. Description: MK2 cellular assay, detection of total and phospho-Hsp27 (Serine 78) by MSD ELISA (Thp1). It is filed as cell-based. The conditions noted are these: Thp-1 cells, 1 hour compound, then 50 ng/mL LPS for 45 minutes, read-out: pHSP27 signaling EC50. As for the experimental part: MK2 Cellular Assay—Detection of Total and Phospho-Hsp27 (Serine 78) by MSD ELISA (Thp1)
Compounds of the invention can be assayed in Thp-1 human acute monocytic leukemia cells to measure inhibition of MK2 activity according to procedures detailed in the '463 application.
Specifically, Thp-1 cells were grown in culture medium containing RPMI/10% FBS (fetal bovine serum)/0.05 mM 2-mercaptoethanol. 72 hours prior to the assay, 8×10^4 cells per well were plated in a 96 well flat bottom plate along with 10 ng/mL phorbol 12-myristate 13-acetate (PMA). Cells were cultured in an incubator at 37° C. until needed for the assay. Cell plate media was replaced with culture media just prior to assay while compound dilutions were being made.
Stock solutions of test compound, 1 mM in DMSO, were prepared. […]
The MULTI-SPOT Phospho(Ser78)/Total HSP27 ELISA Assay kit was purchased from Meso Scale […] (MSD; catalog #K15128D). […] 150 μl/well 1×MSD read buffer was added (4× read buffer supplied with kit) and the plate was analyzed on the MSD SECTOR®Imager for analysis. The SECTOR®Imager measures intensity of emitted light to provide a quantitative measure of phosphorylated HSP27 (Ser78) and total HSP27 present in the sample. The relative percent phosphoprotein in a sample is calculated by dividing the Phospho-HSP27 signal intensity over the total HSP27 signal intensity measured in each well.
For orientation: In an ELISA, binding on a coated surface is turned into a signal by an enzyme label.

The EC50 is the concentration giving half of the maximal effect.

With `CCOCc1cnc(Cl)nc1Oc1ccc2c(ccc3sc4c(c32)NC[C@H](C)NC4=O)n1` [Compound I-82], the EC50 fell in the range of 101 to 500 nM.

Values taken from US11098057B2, “9,10,11,12-tetrahydro-8H-[1,4]diazepino[5′,6′:4,5]thieno[3,2-F]quinolin-8-one compounds and uses thereof” (Celgene CAR LLC, priority 2017, dated 2021).
